Tests used:
[1] = test system: d(TTAGGG)4 (HT24), G4 structure of human telomere; assay: CD thermal melting curve (265 nm) of HT24 G4 structure; format: binding
Method: (§1) All oligonucleotides were purchased from Bio Basic Inc. and used without further purification, including the single strand sequence derived from telomere of human chromosome, d(TTAGGG)4 (HT24) (SEQ ID NO: 1). Solutions of 10 mM Tris-HCl (pH 7.5) and its mixed solutions with KCl were mixed with each DNA sample and heated to 95° C. for 10 min first, cooled slowly to room temperature, and then stored for 48 h at 4° C. before use.
(§2) J-815 spectropolarimeter (Jasco, Japan) with a 2 nm bandwidth at a 50 nm/min scan speed and a 0.2 nm step resolution was used to obtain CD spectra, and the following data was provided as an average of 10 scan results. The CD spectra were measured by monitoring the G4 structures under N2 over the range of 210 nm to 350 nm, and the thermal melting curves, as a function of temperature, were obtained by monitoring the CD intensity at 265 nm. Three independently scans were recorded for each sample. The melting temperature (Tm) was measured from the first differentiation of the melting curve.
The BMVC-8C3O of the present invention can not only induce the formation of G4 structures, but also stabilize G4 structures. FIGS. 3A and 3B show the CD spectra of HT24 and its complex with 5 eq. BMVC-8C3O in 5 mM K^+ solution at 25° C. and 95° C., respectively. […] BMVC-8C3O in 5 mM or 150 mM K^+ solution at 265 nm, as a function graph of temperature. After adding 5 eq. BMVC-8C3O at 37° C.

[2] = test system: d(TTAGGG)4 (HT24), G4 structure of human telomere; assay: CD and 1H NMR spectra: conversion of G4 structure conformation of HT24 in K+ or Na+ solution; format: binding; settings: for formation of G4 structures and conversion of G4 structures of human telomeres from nonparallel to parallel forms: K+ solution, summary statement; for CD spectral change before and after annealing: 5 μM HT24, 1 eq. compound
Method: as §1
It is well-known that the linear parallel G4 structures, such as a propeller form, give a positive band at around 265 nm and a negative band at around 240 nm, while the anti-parallel G4 structures, such as a basket or chair form, show two positive bands at around 295 nm and 240 nm and a negative band at around 265 nm. In addition, the hybrid type G4 structures (3+1, including 3 parallel and 1 anti-parallel G4 structures) give a positive CD band at around 290 nm and a positive shoulder band at around 265 nm. The anti-parallel and hybrid type are both so-called “non-parallel” G4 structures. These spectral features are mainly attributed to the specific guanine stacking in various G4 structures.
as §2
5 μM HT24 and 1 eq. BMVC-8C3O (the equivalence ratio of HT24:BMVC-8C30 is 1:1) were used to detect whether BMVC-8C3O could convert the G4 structure conformation of HT24 from non-parallel to parallel.
The CD spectra of the HT24 and its complexes with 1 eq. BMVC-8C3O mixed in a 150 mM K^+ solution or in a 150 mM Na^+ solution were measured right after the mixing step under room temperature, as shown in FIGS. 2A and 2B (+BMVC-8C3O×1). Another set of spectra were obtained after these samples were annealed, i.e. heated at 95° C., and then gradually cooled down to room temperature (+BMVC-8C3O×1 anneal). […] These spectral features are consistent with the spectral changes of d[G3(T2AG3)3] (HT21) in K^+ or Na^+ solution upon the addition of 40% PEG (see Xue et al., 2007). That is to say, the peak at 265 nm (parallel G4 structure) increases and the peak at 290 nm (non-parallel G4 structure) decreases. This is, BMVC-8C3O and 40% PEG can converse the G4 structures from the non-parallel to the parallel.
BMVC-8C3O at 37° C., as a function of time.
In addition, 0.1 mM HT24 was mixed with 5 eq. BMVC-8C3O and dissolved in a H2O/D2O (90%/10%) solution containing 10 mM tris-HCl (pH 7.5) and 150 mM KCl to prepare samples for NMR (control sample was without BMVC-8C3O). Then the imino protons in the chemical shift range of 9-14 ppm were measured on a Bruker AVIII 800 MHz spectrometer using a pulsed-gradient spin-echo sequence with a selective refocusing pulse, and the chemical shift was measured relative to a D2O solution of DSS as an external reference. […] The NMR spectra show significant changes after adding 5 eq.
When 1 eq. […] However, when the concentration of BMVC-8C3O is increasing, the necessity of the annealing step decreases. For example, 5 eq. BMVC-8C3O induces spectra changes of the complex of HT24 and BMVC-8C3O in 150 mM K^+ solution at 37° C. (converting from non-parallel to parallel), and the annealing step is not necessary (see FIG. 2C).

[3] = test system: d(TTAGGG)4 (HT24), single strand sequence derived from telomere of human chromosome; assay: CD spectra: induction of G4 structure formation of HT24 under a salt-deficient condition; format: binding; settings: 20 μM HT24, salt-deficient condition, room temperature, HT24:BMVC-8C3O 1:0 to 1:10
Method: as §1
First, circular dichroism spectroscopy (CD spectra) was used to examine whether BMVC-8C3O could induce the formation of G4 structure of human telomere, HT24, under a salt-deficient condition (Chang et al., 2007; Bugaut et al., 2008; Giraldo et al., 1994). […]
as §2, with “curve. […]” for “curve.”

CL1-0 lung cancer cells = assay: Long-term cell proliferation curve, CL1-0 cancer cells; format: cell-based; settings: long-term treated with 1.0 μM
Method: (§3) CL1-0 lung cancer cells and MRC-5 normal human lung fibroblasts were used in the following experiments, wherein CL1-0 cells were cultured in RPMI-1640 medium containing 10% FBS (fetal bovine serum) and 1% antibiotics (including penicillin and streptomycin), and MRC-5 cells were cultured in MEM medium containing 10% FBS and 1% antibiotics.
(§4) When these cells were subcultured, culture medium containing 1.0 μM BMVC-8C3O (1% DMSO for the control) was used to separate these cells into 5×10^5 cells/petri dish having a diameter of 6 cm. After 2 or 3 days, these cells were trypsinized and counted, and subcultured again with the same density and method. Cells were subcultured repeatedly until the total cell number was less than 5×10^5.
(§5) FIGS. 4A and 4B show the cell proliferation curves of CL1-0 cancer cells and MRC-5 normal cells that long-term treated with 1.0 μM BMVC-8C3O. From FIG. 4A, it is obvious that the proliferation of CL1-0 cancer cells is slowed from around day 10, and stopped at around day 20.

[4] = test system: MRC-5 normal human lung fibroblasts; assay: Long-term cell proliferation curve, MRC-5 normal cells; format: cell-based; settings: long-term treated with 1.0 μM
Method: as §3, §4, §5

| SMILES | increase of the melting temperature of the G4 structures of human telomeres ([1]; summary statement, conditions not given at the place) | formation of G4 structures and conversion of G4 structures of human telomeres from nonparallel to parallel forms [2] | induction of G4 structure formation of HT24 (CD spectra) [3] | day at which proliferation of CL1-0 cancer cells is stopped (CL1-0 lung cancer cells) [days] | day from which proliferation of CL1-0 cancer cells is slowed (CL1-0 lung cancer cells) [days] | effect on proliferation of MRC-5 normal cells [4] | enhancement of melting temperature (Tm) of HT24 ([1]; 5 eq. compound, 37° C. 24 hours, 5 mM K+ solution) | melting temperature (Tm) of HT24 complex ([1]; 5 eq. compound, 37° C. 24 hours, 5 mM K+ solution, HT24 alone approximately 41° C.) [°C] | CD spectral change before and after annealing ([2]; 150 mM K+ solution) | CD spectral change before and after annealing ([2]; 150 mM Na+ solution) | structural change of HT24 (imino proton 1H NMR spectra) ([2]; 0.1 mM HT24, 5 eq. compound, 150 mM KCl, 2 h and 12 h after adding) | conversion of G4 structure conformation of HT24 from non-parallel to parallel (CD spectra) ([2]; 5 eq. compound, 150 mM K+ solution, 37° C., without annealing) |
| --- | --- | --- | --- | --- | --- | --- | --- | --- | --- | --- | --- | --- |
| C[n+]1ccc(C=Cc2ccc3[nH]c4ccc(C=Cc5cc[n+](C)cc5)cc4c3c2)cc1.[I-].[I-] [BMVC, 3,6-bis(1-methyl-4-vinylpyridinium)carbazole diiodide, reference compound] | approximately 20 °C | cannot be achieved | – | – | – | – | – | – | – | – | – | – |
| C[n+]1ccc(C=Cc2ccc3c(c2)c2cc(C=Cc4cc[n+](C)cc4)ccc2n3CCOCCOCCOCC[N+]2(C)CCCCC2)cc1.[I-].[I-].[I-] [BMVC-8C3O, 3,6-Bis(1-methyl-4-vinylpyridium iodide)-9-(1-(1-methyl-piperidinium iodide)-3,6,9-trioxaundecane) carbazole] | – | can induce the formation of G4 structures and convert the G4 structures of human telomeres from nonparallel to parallel forms | can induce G4 formation under a salt-deficient condition | ~20 | ~10 | does not significantly affect | about 50 °C | > 90 | significant spectral changes | only CD intensity changes are observed | can induce the structural change of HT24 | can convert the conformation of G4 structures from non-parallel to parallel |

Reference: patent US20130005720A1, “PHARMACEUTICAL COMPOSITION FOR TREATING CANCER AND APPLICATIONS THEREOF” (Academia Sinica, priority 2011, published 2013)
